# System: human ureteral smooth muscle
# Test: Relaxation of 40 mM KCl-induced contraction of isolated human ureteral smooth muscle strips
# Type: cell-based
# Settings: for ureteral relaxing effect: 40 mM KCl-induced tonic contraction, 10^−6 M phentolamine present, FIG. 1
# Procedure: Measurement of the contractile force of the ureteral smooth muscle strip (1) Preparation of smooth muscle strips Specimens of human ureter were obtained from patients undergoing nephrectomy or total cystectomy. After the specimens were carefully dissected free from the surrounding fat tissues, they were cut into spiral strips. The ureteral strips of about 20 mm in length and 5 mm in width were prepared. (2) Experimental conditions Buffer solution; Locke's-solution No.2: NaCl (154 mM), KCl (5.6 mM), CaCl2 (2.1 mM), NaHCO3 (5.6 mM) and glucose (3.6 mM) Ureteral muscle strips without any spontaneous rhythmic contractions were used. An initial resting tension of about 1.0 g was placed. The actions of drugs against the 40 mM KCl-induced tonic contraction were evaluated in the presence of 10^−6 M phentolamine. […] The evaluation of drugs; The drug-induced relaxation was expressed as a percentage of the maximal relaxing response to 10^−5 M of isoproterenol. The ureteral tension before the treatment is indicated as 100%, and the tension after treatment of 10^−5 M of isoproterenol which produces maximal ureteral relaxation is indicated as 0%. According to the methods described above, the ureteral relaxing effects of the drug were measured using the human ureteral smooth muscle strips. According to the method described above, the interaction between a β-adrenoceptor stimulant and a β-adrenoceptor blocker was evaluated in human ureteral smooth muscle strips using the following drugs.
SMILES,ureteral relaxing effect,"relaxation produced by isoproterenol in the presence of ICI-118,551 (40 mM KCl contraction, pre-treatment with 100 nM ICI-118,551, relative to maximal relaxation by 10^−5 M isoproterenol alone, FIG. 2)","blocking of isoproterenol-induced ureteral relaxation (40 mM KCl contraction, ICI-118,551 100 nM pre-treatment, FIG. 2)"
"CC(C)(C)NCC(O)COc1cccc2[nH]c(=O)[nH]c12.Cl (racemic) [CGP-12,177A, (±)-4-[3-[(1,1-dimethylethyl)amino]-2-hydroxypropoxy]-1,3-dihydro-2H-benzimidazol-2-one hydrochloride]",produced apparent ureteral relaxation,–,–
CCC(NC(C)C)C(O)c1ccc(O)c2[nH]c(=O)ccc12 (centres unmarked) [procaterol],produced apparent ureteral relaxation,–,–
CC(C)NCC(O)c1ccc(O)c(O)c1 (centres unmarked) [isoproterenol],showed a more potent relaxing effect,about 50%,–
"Cc1ccc(OCC(O)C(C)NC(C)C)c2c1CCC2.Cl (racemic) [ICI-118,551, (±)-1-[(2,3-dihydro-7-methyl-1H-inden-4-yl)oxy]-3-[(1-methylethyl)amino]-2-butanol hydrochloride]",–,–,"attenuated the isoproterenol-induced ureteral relaxation, but did not completely block"

# Reference: US6410560B1, “Drug for relieving pain and promoting the removal of calculi in urolithiasis” (Kissei Pharmaceutical Co., Ltd., priority 1995, dated 2002)
